Our source for the ED50 values is patent US4000151A, “Triazolyl benzophenone compounds” (priority 1975, dated 1976).

Holding throughout (type): in vivo
In experiment [1] the test system is mice. In words: Dish test (mice remaining in Petri dish for more than 3 minutes). To be noted: Mus musculus; Table II, route not given. The protocol: (§1) Sedative effects of 8-chloro-1-methyl-6-phenyl-4H-s-triazolo[ 4,3-a][ 1,4]benzodiazepine (a final product conforming to formula VII) are shown by the following tests in mice: […]
Dish test: Mice in Petri dishes (10 cm. diameter, 5 cm. high, partially embedded in wood shavings), climb out in a very short time, when not treated. Mice remaining in the dish for more than 3 minutes indicates tranquilization. ED50 equals the dose of the test compound at which 50% of the mice remain in the dish.

Experiment [2] concerns mice. Kind of experiment: Nicotine antagonism test. As to conditions: Mus musculus; Table II, route not given. On the procedure: Nicotine antagonism test: Mice in a group of 6 are injected with the test compound (8-chloro-1-methyl-6-phenyl-4H-s-triazolo[ 4,3-a][ 1,4]benzodiazepine). Thirty minutes later the mice, including control (untreated) mice are injected with nicotine salicylate (2 mg./kg.). The control mice show overstimulation, i.e., (1) running convulsions followed by (2) tonic extensor fits, followed by (3) death.

In experiment [3] the test system is mice. Kind of experiment: Pedestal test (mice staying on the pedestal for more than 1 minute). To be noted: Mus musculus; Table II, route not given. On the procedure:
as §1
Pedestal test; The untreated mouse leaves the pedestal in less than a minute to climb back to the floor of the standard mouse box. Tranquilized mice will stay on the pedestal for more than 1 minute. The ED50 (oral administration) is 0.9 mg./kg.

In experiment [4] the test system is mice. Kind of experiment: Chimney test (mice back up and out of a vertical glass cylinder within 30 seconds). As to conditions: Mus musculus. On the procedure: as §1
Chimney test: [Med. Exp. 4, 145 (1961)]: The effective intraperitoneal dosage for 50% of the mice (ED50) is 0.09 mg./kg.; the oral ED50 is 0.6 mg./kg. The test determines the ability of mice to back up and out of a vertical glass cylinder within 30 seconds. At the effective dosage, 50% of the mice failed doing it.

For the compound `Cc1nncn1-c1ccc(Cl)cc1C(=O)c1ccccc1` [5-Chloro-2-(3-methyl-4H-1,2,4-triazol-4-yl)benzophenone], the ED50 stood at 23 mg/kg in experiment [1]; 20 mg/kg in experiment [2]; 20 mg/kg in experiment [3]; 28 mg/kg in experiment [4] (Table II, route not given, read-out: ED50 Ch).

On to `Cc1nnc2n1-c1ccc(Cl)cc1C(c1ccccc1)=NC2` [8-Chloro-1-methyl-6-phenyl-4H-s-triazolo[4,3-a][1,4]benzodiazepine], for which, in experiment [4] (mice, oral, read-out: oral ED50, chimney test), the ED50 was 0.6 mg/kg.

In general, ED50 refers to the midpoint of the dose-response relation.
